As usually defined, the IC50 is the concentration at which inhibition is half-maximal. Low values mean inhibition by little substance, high ones a need for much substance.

The assay concerns the target human TPH1 (Homo sapiens (Human), UniProt P17752). Put plainly: Biochemical in vitro assay using fluorescence readout (TPH1 inhibition).
[1] abbreviates: human TPH1, fluorescence readout.
The mark [2] stands for this setting: full length human TPH1, 40 μM L-tryptophan, 15° C., 60 minutes, fluorescence at 540 nm, mean if determined several times.

human TPH1, sequence (P17752 whole entry): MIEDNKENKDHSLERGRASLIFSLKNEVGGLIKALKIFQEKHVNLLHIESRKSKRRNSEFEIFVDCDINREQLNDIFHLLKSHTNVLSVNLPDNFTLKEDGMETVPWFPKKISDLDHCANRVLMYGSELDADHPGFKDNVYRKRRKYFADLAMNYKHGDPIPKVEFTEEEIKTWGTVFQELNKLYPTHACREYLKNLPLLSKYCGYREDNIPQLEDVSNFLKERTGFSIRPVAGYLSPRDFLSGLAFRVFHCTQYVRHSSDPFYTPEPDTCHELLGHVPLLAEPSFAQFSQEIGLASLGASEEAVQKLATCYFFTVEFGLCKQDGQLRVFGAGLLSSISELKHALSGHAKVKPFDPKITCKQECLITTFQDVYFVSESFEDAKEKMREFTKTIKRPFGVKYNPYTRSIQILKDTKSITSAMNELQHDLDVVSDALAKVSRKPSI

Take `O=C(COc1ccc(CN2CCOCC2)nc1Cl)N1CCc2nc3sccn3c2C1c1cc2cccnc2s1` (stereo not drawn) [Example 6.14.4, 2-((2-chloro-6-(morpholinomethyl)pyridin-3-yl)oxy)-1-(5-(thieno[2,3-b]pyridin-2-yl)-7,8-dihydrothiazolo-[2′,3′:2,3]imidazo[4,5-c]pyridin-6(5H)-yl)ethanone]: under setting [1], inhibition was half-maximal at 38 nM (IC50).
As to `CNC(=O)c1csc(C2c3c(nc4sc(C)nn34)CCN2C(=O)COc2ccc(N3CCOCC3)nc2Cl)n1` (stereo not drawn) [Example 1.44.2, 2-(6-(2-((2-Chloro-6-morpholinopyridin-3-yl)oxy)acetyl)-2-methyl-5,6,7,8-tetrahydro-[1,3,4]thiadiazolo[2′,3′:2,3]imidazo[4,5-c]pyridin-5-yl)-N-methylthiazole-4-carboxamide], under setting [2], the IC50 amounted to 5 nM.
`Cc1nn2c3c(nc2s1)CCN(C(=O)COc1ccc(N2CCOCC2)nc1Cl)C3c1cc(C(=O)N(C)C)cs1` (stereo not drawn) [Example 1.9.1, 5-(6-(2-((2-chloro-6-morpholinopyridin-3-yl)oxy)acetyl)-2-methyl-5,6,7,8-tetrahydro-[1,3,4]thiadiazolo[2′,3′:2,3]imidazo[4,5-c]pyridin-5-yl)-N,N-dimethyl-thiophene-3-carboxamide]: the IC50 under setting [2] stood at 5 nM.
For `Cc1nn2c3c(nc2s1)CCN(C(=O)COc1ccc(C2CC2)cc1Cl)C3c1ccc(Cl)cc1F` (stereo not drawn) [Example 1.4.34, 1-(5-(4-Chloro-2-fluorophenyl)-2-methyl-7,8-dihydro-[1,3,4]thiadiazolo[2′,3′:2,3]imidazo[4,5-c]pyridin-6(5H)-yl)-2-(2-chloro-4-cyclopropylphenoxy)-ethanone], half-maximal inhibition under setting [2] (IC50) was put at 4 nM.
In the case of `Cc1ccccc1OCC(=O)N1CCc2nc3sccn3c2C1c1nc2ccccc2s1` (stereo not drawn) [Example 6.12.2, 1-(5-(benzo[d]thiazol-2-yl)-7,8-dihydrothiazolo-[2′,3′:2,3]imidazo[4,5-c]pyridin-6(5H)-yl)-2-(o-tolyloxy)-ethanone], under setting [1], half-maximal inhibition (IC50) required 115 nM.
Under setting [1], `Cc1nn2c3c(nc2s1)CCN(C(=O)COc1ccc(C(N)=O)nc1Cl)C3c1ncc(Cl)cc1F` (stereo not drawn) [Example 1.33.4, 6-chloro-5-(2-(5-(5-chloro-3-fluoropyridin-2-yl)-2-methyl-7,8-dihydro-[1,3,4]thiadiazolo[2′,3′:2,3]imidazo[4,5-c]pyridin-6(5H)-yl)-2-oxoethoxy)picolinamide] yielded a concentration for half-maximal inhibition (IC50) of 7 nM.
The molecule `Cc1cnc(C2c3c(nc4sc(C)nn34)CCN2C(=O)COc2ccc(NS(C)(=O)=O)nc2Cl)c(F)c1` (stereo not drawn) [Example 1.31.8, N-(6-chloro-5-(2-(5-(3-fluoro-5-methylpyridin-2-yl)-2-methyl-7,8-dihydro-[1,3,4]thiadiazolo[2′,3′:2,3]imidazo[4,5-c]pyridin-6(5H)-yl)-2-oxoethoxy)pyridin-2-yl)methanesulfonamide] registered an IC50 under setting [1] of 9 nM. This IC50 and that of the molecule before are within 1.5-fold of each other.
Under setting [1], `Cc1nn2c3c(nc2s1)CCN(C(=O)COc1ccc(S(N)(=O)=O)cc1)C3c1ccc(C2CC2)cc1F` (stereo not drawn) [Example 1.6.12, 4-(2-(5-(4-cyclopropyl-2-fluorophenyl)-2-methyl-7,8-dihydro-[1,3,4]thiadiazolo[2′,3′:2,3]imidazo[4,5-c]pyridin-6(5H)-yl)-2-oxoethoxy)benzenesulfonamide] returned an IC50 of 390 nM.
On the same count and under the same terms, with `O=C(COc1ccc(CN2CCOCC2)nc1Cl)N1CCc2nc3sccn3c2C1c1cnn(-c2ccccc2)c1` (stereo not drawn) [Example 6.13.6, 2-((2-chloro-6-(morpholinomethyl)pyridin-3-yl)oxy)-1-(5-(1-phenyl-1H-pyrazol-4-yl)-7,8-dihydrothiazolo-[2′,3′:2,3]imidazo[4,5-c]pyridin-6(5H)-yl)ethanone] the figure was 28 nM.
Turning to `Cc1nn2c3c(nc2s1)CCN(C(=O)COc1ccc(N2CCOCC2)nc1Cl)C3c1csc(CN(C)C)c1` (stereo not drawn) [Example 1.69.1, 2-((2-Chloro-6-morpholinopyridin-3-yl)oxy)-1-(5-(5-((dimethylamino)-methyl)thiophen-3-yl)-2-methyl-7,8-dihydro-[1,3,4]thiadiazolo[2′,3′:2,3]imidazo[4,5-c]pyridin-6(5H)-yl)ethanone], 51 nM corresponded to half-maximal inhibition under setting [2] (IC50).
Under setting [2], `Cc1nn2c3c(nc2s1)CCN(C(=O)COc1ccc(C(=O)N(C)C)nc1Cl)C3c1ncc(C(=O)N(C)C)s1` (stereo not drawn) [Example 1.37.4, 2-(6-(2-((2-Chloro-6-(dimethylcarbamoyl)pyridin-3-yl)oxy)acetyl)-2-methyl-5,6,7,8-tetrahydro-[1,3,4]thiadiazolo[2′,3′:2,3]imidazo[4,5-c]pyridin-5-yl)-N,N-dimethylthiazole-5-carboxamide] had an IC50 of 40 nM. The IC50 values of the last two molecules are within 1.5-fold of each other.
In turn, `Cc1nn2c3c(nc2s1)CCN(C(=O)COc1ccc(C#N)cc1Cl)C3c1scnc1C` (stereo not drawn) [Example 1.32.2, 3-chloro-4-(2-(2-methyl-5-(4-methylthiazol-5-yl)-7,8-dihydro-[1,3,4]thiadiazolo[2′,3′:2,3]imidazo[4,5-c]pyridin-6(5H)-yl)-2-oxoethoxy)benzonitrile] had a half-inhibitory concentration (IC50) under setting [1] of 83 nM.
Under setting [2], `Cc1nn2c3c(nc2s1)CCN(C(=O)COc1ccc(C(=O)NO)nc1Cl)C3c1ccc(Cl)cc1F` (stereo not drawn) [Example 1.4.25, 6-Chloro-5-(2-(5-(4-chloro-2-fluorophenyl)-2-methyl-7,8-dihydro-[1,3,4]thiadiazolo[2′,3′:2,3]imidazo[4,5-c]pyridin-6(5H)-yl)-2-oxoethoxy)-N-hydroxy-picolinamide] returned an IC50 of 14 nM.
Molecule `COC(=O)c1csc(C2c3c(nc4sc(C)nn34)CCN2C(=O)COc2ccc(N3CCOCC3)nc2Cl)c1` (stereo not drawn) [Example 1.21.1, Methyl 5-(6-(2-((2-chloro-6-morpholinopyridin-3-yl)oxy)acetyl)-2-methyl-5,6,7,8-tetrahydro-[1,3,4]thiadiazolo[2′,3′:2,3]imidazo[4,5-c]pyridin-5-yl)thiophene-3-carboxylate] returned a 50% inhibitory concentration (IC50) under setting [1] of 5 nM.
Under setting [1], `Cc1nn2c3c(nc2s1)CCN(C(=O)COc1ccc(N2CCOCC2)nc1Cl)C3c1scnc1C` (stereo not drawn) [Example 1.32.1, 2-((2-chloro-6-morpholinopyridin-3-yl)oxy)-1-(2-methyl-5-(4-methylthiazol-5-yl)-7,8-dihydro-[1,3,4]thiadiazolo [2′,3′:2,3]imidazo[4,5-c]pyridin-6(5H)-yl)ethanone] gave a half-maximal inhibitory concentration (IC50) of 2 nM.
For the molecule `CCc1cc(Cl)ccc1OCC(=O)N1CCc2nc3sc(C)nn3c2C1c1ccc(C2CC2)cc1F` (stereo not drawn) [Example 1.6.7, 2-(4-chloro-2-ethylphenoxy)-1-(5-(4-cyclopropyl-2-fluorophenyl)-2-methyl-7,8-dihydro-[1,3,4]thiadiazolo[2′,3′:2,3]imidazo[4,5-c]pyridin-6(5H)-yl)ethanone], under setting [1], the half-maximal inhibitory concentration (IC50) was 7 nM.
In turn, `Cc1nn2c3c(nc2s1)CCN(C(=O)COc1ccc(C(F)(F)F)nc1Cl)C3c1ccc(C2CC2)cc1F` (stereo not drawn) [Example 1.6.24, 2-((2-chloro-6-(trifluoromethyl)pyridin-3-yl)oxy)-1-(5-(4-cyclopropyl-2-fluorophenyl)-2-methyl-7,8-dihydro-[1,3,4]thiadiazolo[2′,3′:2,3]imidazo[4,5-c]pyridin-6(5H)-yl)ethanone] displayed a half-maximal inhibitory concentration (IC50) under setting [1] of 7 nM.
As to `Cc1nn2c3c(nc2s1)CCN(C(=O)COc1ccc(N2CCOCC2)nc1Cl)C3c1ccc(C2CC2)cc1F` (stereo not drawn) [Example 1.6.17, 2-((2-chloro-6-morpholinopyridin-3-yl)oxy)-1-(5-(4-cyclopropyl-2-fluorophenyl)-2-methyl-7,8-dihydro-[1,3,4]thiadiazolo [2′,3′:2,3]imidazo[4,5-c]pyridin-6(5H)-yl)ethanone], under setting [1], 3 nM corresponded to half-maximal inhibition (IC50).

The values above are taken from patent US9765092B2, “Tricyclic piperidine compounds” (ACTELION PHARMACEUTICALS LTD, priority 2013, dated 2017).
